Literature values as cited in patent US20090130187A1, “Covalent Conjugates of Cotton and Substitutes (Viscose, Modal Cotton) with Bioactive Substances Having Antiseptic, Sanitizing, Acaricidal and Insect Repellent Activity, and a Method for Obtaining Them” (priority 2006, published 2009).

Tested on: rat

For `Clc1nc(Cl)nc(Cl)n1` [2,4,6-tri-chloro 1,3,5 triazine], the “LD 50 (rat)” value is given as 930 mg/kg.
